# Experimental data reported in patent US20040087798A1, “Novel amide compounds” (priority 2000, published 2004).
row,SMILES,melting point
1,"N=C(Nc1cccc(NC(=O)Cc2ccccc2)c1)c1ccccc1 [Example 1, N-[3-(iminobenzylamino)phenyl]phenylacetamide]",213 to 214 °C
2,"N=C(Nc1cccc(NC(=O)C=Cc2ccccc2)c1)c1ccccc1 [Example 2, N-[3-(iminobenzylamino)phenyl]cinnamamide]",115 to 117 °C
3,"Cc1ncccc1Oc1ccc(NC(=O)/C=C/c2ccccc2C(F)(F)F)cn1 [Example 9, (2E)-N-[6-(2-methyl-3-pyridyloxy)pyridin-3-yl]-3-[2-(trifluoromethyl)phenyl]-2-propenamide]",214 to 216 °C
4,"COc1ccccc1/C=C/C(=O)Nc1cccc(NC(=N)c2ccccc2)c1 [Example 14, (2E)-N-[3-(iminobenzylamino)phenyl]-3-(2-methoxyphenyl)-2-propenamide]",219 to 221 °C
5,"N=C(Nc1ccc(F)c(NC(=O)/C=C/c2ccccc2Cl)c1)c1cccs1 [Example 16, (2E)-N-[2-fluoro-5-[[imino(2-thienyl)methyl]amino]phenyl]-3-(2-chlorophenyl)-2 propenamide]",215 to 216 °C
6,"N=C(Nc1ccc(F)c(NC(=O)/C=C/c2ccccc2Cl)c1)c1ccccc1 [Example 17, (2E)-N-[2-fluoro-5-(iminobenzylamino)phenyl]-3-(2-chlorophenyl)-2-propenamide]",189 to 191 °C
7,"COc1ccc(Cl)cc1C(=N)Nc1ccc(F)c(NC(=O)/C=C/c2ccccc2Cl)c1 [Example 18, (2E)-N-[5-[[(5-chloro-2-methoxyphenyl)(imino)methyl]amino]-2-fluorophenyl]-3-(2-chlorophenyl)-2-propenamide]",229 to 230 °C
8,"COc1ccc(F)cc1C(=N)Nc1cc(Cl)cc(NC(=O)/C=C/c2ccccc2Cl)c1 [Example 23, (2E)-N-[3-chloro-5-[[(5-fluoro-2-methoxyphenyl)(imino)methyl]amino]phenyl]-3-(2-chlorophenyl)-2-propenamide]",238 to 239 °C
9,"COc1ccc(Cl)cc1C(=N)Nc1cc(Cl)cc(NC(=O)/C=C/c2ccccc2Cl)c1 [Example 24, (2E)-N-[3-chloro-5-[[(5-chloro-2-methoxyphenyl)(imino)methyl]amino]phenyl]-3-(2-chlorophenyl)-2-propenamide]",226 to 228 °C
10,"CC(C)c1ccc(NC(=N)c2cccc(NC(=O)C=Cc3ccccc3Cl)c2)cc1 [Example 27, N-[3-[imino(4-isopropylanilino)methyl]phenyl}-2-chlorocinnamamide]",112 to 118 °C
11,"COc1ccc(F)cc1C(=N)Nc1cc(Cl)cc(NC(=O)/C=C/c2ccccc2C(F)(F)F)c1 [Example 30, (2E)-N-[3-chloro-5-[[(5-fluoro-2-methoxyphenyl)(imino)methyl]amino]phenyl]-3-[2-(trifluoromethyl)phenyl]-2-propenamide]",213 to 214 °C
12,"N=C(Nc1cc(Cl)cc(NC(=O)/C=C/c2ccccc2Cl)c1)c1ccccc1 [Example 31, (2E)-N-[3-chloro-5-(iminobenzylamino)phenyl]-3-(2-chlorophenyl)-2-propenamide]",105 to 115 °C
13,"N=C(Nc1cc(NC(=O)/C=C/c2ccccc2Cl)cc(C(F)(F)F)c1)c1cccs1 [Example 32, (2E)-N-[3-trifluoromethyl-5-[[imino(2-thienyl)methyl]amino]phenyl]-3-(2-chlorophenyl)-2-propenamide]",206 to 208 °C
14,"N=C(Nc1cc(Cl)cc(NC(=O)/C=C/c2ccccc2Cl)c1)c1cccs1 [Example 33, (2E)-N-[3-chloro-5-[[imino(2-thienyl)methyl]amino]phenyl]-3-(2-chlorophenyl)-2-propenamide]",123 to 124 °C
15,"N=C(Nc1cc(Cl)cc(NC(=O)/C=C/c2ccccc2C(F)(F)F)c1)c1cccs1 [Example 34, (2E)-N-[3-chloro-5-[[imino(2-thienyl)methyl]amino]phenyl]-3-[2-(trifluoromethyl)phenyl]-2-propenamide]",178 to 179 °C
16,"N=C(Nc1cc(Cl)cc(NC(=O)/C=C/c2ccccc2C(F)(F)F)c1)c1ccccc1 [Example 35, (2E)-N-[3-chloro-5-(iminobenzylamino)phenyl]-3-[2-(trifluoromethyl)phenyl]-2-propenamide]",137 to 139 °C
17,"N#Cc1cc(NC(=N)c2ccccc2)cc(NC(=O)/C=C/c2ccccc2C(F)(F)F)c1 [Example 36, (2E)-N-[3-cyano-5-(iminobenzylamino)phenyl]-3-[2-(trifluoromethyl)phenyl]-2-propenamide]",181 to 182 °C
18,"Cc1ccc(/C=C/C(=O)Nc2cccc(NC(=N)c3ccccc3)c2)cc1 [Example 38, (2E)-N-[3 (iminobenzylamino)phenyl]-3-(4-methylphenyl)-2-propenamide]",147 to 149 °C
19,"Cc1cccc(/C=C/C(=O)Nc2cccc(NC(=N)c3ccccc3)c2)c1 [Example 39, (2E)-N-[3-(iminobenzylamino)phenyl]-3-(3-methylphenyl)-2-propenamide]",179 to 180 °C
20,"Cc1ccccc1/C=C/C(=O)Nc1cccc(NC(=N)c2ccccc2)c1 [Example 40, (2E)-N-[3 (iminobenzylamino)phenyl]-3-(2-methylphenyl)-2-propenamide]",109 to 114 °C
21,"Cn1c(NCc2cccc(NC(=O)C=Cc3ccccc3Cl)c2)nc2ccccc21 [Example 43, N-[3-[[(1-methyl-1H-benzimidazol-2-yl)amino]methyl]phenyl]-3-(2-chlorophenyl)-2-propenamide]",188 to 191 °C
22,"O=C(C=Cc1ccccc1Cl)Nc1ccc(NCc2ccccn2)nc1 [Example 44, N-[6-[(2-pyridylmethyl)amino]-3-pyridyl]-3-(2-chlorophenyl)-2-propenamide]",164 to 165 °C
23,"Cc1ncccc1Oc1ccc(NC(=O)C=Cc2ccccc2Cl)cn1 [Example 45, N-[6-[(2-methyl-3-pyridyl)oxy]-3-pyridyl]-3-(2-chlorophenyl)-2-propenamide]",187 to 189 °C
24,"N=C(Nc1cccc(NC(=O)/C=C/c2ccccc2C(F)(F)F)c1)c1ccccc1 [Example 46, (2E)-N-[3-(iminobenzylamino)phenyl]-3-[2-(trifluoromethyl)phenyl]-2-propenamide]",82 to 84 °C
25,"N=C(Nc1cccc(NC(=O)/C=C/c2ccc(Cl)cc2)c1)c1ccccc1 [Example 47, (2E)-N-[3-(iminobenzylamino)phenyl]-3-(4-chlorophenyl)-2-propenamide]",109 to 110 °C
26,"COc1cccc(/C=C/C(=O)Nc2cccc(NC(=N)c3ccccc3)c2)c1 [Example 48, (2E)-N-[3(iminobenzylamino)phenyl]-3-(3-methoxyphenyl)-2-propenamide]",148 to 149 °C
27,"O=C(C=Cc1ccccc1Cl)Nc1cccc(CNc2ccc3ccccc3n2)c1 [Example 50, N-[3-[(2-quinolylamino)methyl]phenyl]-3-(2-chlorophenyl)-2-propenamide]",170 to 171 °C
28,"CN(C)c1ccc(C(=N)Nc2cccc(NC(=O)C=Cc3ccccc3)c2)cc1 [Example 51, N-[3-[[[4-(dimethylamino)phenyl](imino)methyl]amino]phenyl]cinnamamide]",225 to 227 °C
29,"N=C(Nc1cccc(NC(=O)/C=C/c2cccc(Cl)c2)c1)c1ccccc1 [Example 53, (2E)-N-[3-(iminobenzylamino)phenyl]-3-(3-chlorophenyl)-2-propenamide]",260 to 262 °C
